This is an account of results in PubChem BioAssay (NCI).

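1) Cells in 96-well plates. 2) Compound, 48 h, 5 concentrations. 3) Linear interpolation between surrounding doses. 4) Unreached endpoint = highest concentration. TGI denotes the concentration required for complete inhibition of growth.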

Test systems include U251 CNS; EKVX NSCLC; HCT-15 colon; M14 melanoma; IGROV1 ovarian; RPMI-8226 leukemia; CAKI-1 renal; OVCAR-4 ovarian; HCC-2998 colon; MOLT-4 leukemia; NCI-H522 lung; COLO 205 colon; HOP-62 NSCLC; SR leukemia; MDA-N; T-47D breast; LOX IMVI melanoma.
Holding throughout (test): growth of human tumour cells (NCI), 48 h

Regarding `CC(=O)Nc1ccc2cc3[nH]c4cc(NC(C)=O)ccc4c3nc2c1`, the TGI in the experiment with U251 CNS, with EKVX NSCLC, in the experiment on HCT-15 colon, with M14 melanoma, in the experiment with IGROV1 ovarian and in the experiment on RPMI-8226 leukemia was more than 100 µM throughout. Moreover, the TGI was more than 100 µM in the experiment on CAKI-1 renal; more than 100 µM with OVCAR-4 ovarian; more than 100 µM in the experiment with HCC-2998 colon; 77.3 µM with MOLT-4 leukemia; more than 100 µM in the experiment with NCI-H522 lung; more than 100 µM with COLO 205 colon. Moreover, the TGI with HOP-62 NSCLC, in the experiment on SR leukemia, with MDA-N, with T-47D breast and with LOX IMVI melanoma was more than 100 µM each time.

On to `CN(C)c1ccc(C2ON=C(c3ccccc3)N2C23CC4CC(CC(C4)C2)C3)cc1` (stereo not given), for which the TGI in the experiment on U251 CNS, with EKVX NSCLC, with HCT-15 colon, with M14 melanoma, in the experiment with IGROV1 ovarian and with RPMI-8226 leukemia was more than 10 µM each time. Besides, the TGI in the experiment on CAKI-1 renal, in the experiment on OVCAR-4 ovarian, in the experiment on HCC-2998 colon, in the experiment with MOLT-4 leukemia, in the experiment with NCI-H522 lung and with COLO 205 colon was more than 10 µM each time. The TGI in the experiment with HOP-62 NSCLC, in the experiment with SR leukemia, with MDA-N, in the experiment with T-47D breast and in the experiment with LOX IMVI melanoma was more than 10 µM throughout.

Take `NC(N)=NS(=O)(=O)c1ccc(NC(=O)c2ccc3[nH]c4ccccc4c(=O)c3c2)cc1`: the TGI in the experiment with U251 CNS, in the experiment on EKVX NSCLC, in the experiment with HCT-15 colon, in the experiment with M14 melanoma, with IGROV1 ovarian and in the experiment with RPMI-8226 leukemia was more than 100 µM throughout. Further, the TGI in the experiment on CAKI-1 renal, in the experiment with OVCAR-4 ovarian, in the experiment on HCC-2998 colon, in the experiment on MOLT-4 leukemia, in the experiment on NCI-H522 lung and with COLO 205 colon was more than 100 µM each time. Further, the TGI with HOP-62 NSCLC, in the experiment with SR leukemia, with MDA-N, in the experiment with T-47D breast and with LOX IMVI melanoma was more than 100 µM in each case.

For the compound `C=C1CC(CN2CCC(=O)NC2=O)(c2ccccc2)OC1=O` (stereo not given), the TGI was found to be 32.1 µM in the experiment on U251 CNS; 40 µM with EKVX NSCLC; 18.5 µM in the experiment on HCT-15 colon; 12.8 µM in the experiment on M14 melanoma; 20.7 µM in the experiment with IGROV1 ovarian; 7.95 µM with RPMI-8226 leukemia. For the same compound, the TGI was 7.57 µM in the experiment on CAKI-1 renal; 3.55 µM with OVCAR-4 ovarian; 29.7 µM with HCC-2998 colon; 7.9 µM with MOLT-4 leukemia; 2.17 µM in the experiment with NCI-H522 lung; 6.25 µM in the experiment on COLO 205 colon. Also, the TGI in the experiment on HOP-62 NSCLC came to 40.3 µM; with SR leukemia it was 5.26 µM; in the experiment on MDA-N, 26.7 µM; in the experiment on T-47D breast it was 11.7 µM; with LOX IMVI melanoma, 16.7 µM.

For `CC(NC(NC(C)C12CC3CC(CC(C3)C1)C2)=C(C(Cl)=C(Cl)Cl)[N+](=O)[O-])C12CC3CC(CC(C3)C1)C2` (stereo not given), the TGI in the experiment with U251 CNS is 12.6 µM; in the experiment with EKVX NSCLC, more than 89.4 µM; in the experiment with HCT-15 colon, more than 100 µM; with M14 melanoma it was 48.7 µM; in the experiment with IGROV1 ovarian, 30.1 µM; in the experiment with RPMI-8226 leukemia it was more than 69.5 µM. Further, the TGI in the experiment on CAKI-1 renal is more than 100 µM; with OVCAR-4 ovarian, more than 100 µM; in the experiment on HCC-2998 colon, more than 75 µM; in the experiment on MOLT-4 leukemia it was more than 100 µM; in the experiment with NCI-H522 lung it was 24.3 µM; in the experiment on COLO 205 colon, 22.6 µM. Further, the TGI with HOP-62 NSCLC was more than 100 µM; in the experiment on SR leukemia, more than 100 µM; in the experiment with MDA-N, more than 100 µM; in the experiment on T-47D breast, more than 100 µM; in the experiment with LOX IMVI melanoma it was 21.5 µM.

With `CC(=O)O[C@@H]1O[Si](C(C)(C)C)(C(C)(C)C)[C@H](C)[C@H]1C`, the TGI with U251 CNS, in the experiment on EKVX NSCLC, with HCT-15 colon, in the experiment with M14 melanoma, with IGROV1 ovarian and in the experiment on RPMI-8226 leukemia was more than 100 µM throughout. Also, the TGI is more than 100 µM with CAKI-1 renal; more than 100 µM with OVCAR-4 ovarian; more than 100 µM with HCC-2998 colon; 65.7 µM in the experiment on MOLT-4 leukemia; more than 100 µM with NCI-H522 lung; more than 100 µM with COLO 205 colon. For the same compound, the TGI in the experiment with HOP-62 NSCLC, in the experiment with SR leukemia, with MDA-N, in the experiment on T-47D breast and in the experiment with LOX IMVI melanoma was more than 100 µM in each case.

Take `COC(=O)c1c(C(=O)OC)c2c3ccccc3n(C)c2c2c1c1ccccc1n2C`: the TGI with U251 CNS, in the experiment on EKVX NSCLC, in the experiment with HCT-15 colon, in the experiment on M14 melanoma, with IGROV1 ovarian and in the experiment with RPMI-8226 leukemia was more than 100 µM throughout. For the same compound, the TGI in the experiment on CAKI-1 renal, with OVCAR-4 ovarian, in the experiment on HCC-2998 colon, with MOLT-4 leukemia, with NCI-H522 lung and in the experiment on COLO 205 colon was more than 100 µM in each case. Moreover, the TGI was 75 µM in the experiment with HOP-62 NSCLC; more than 100 µM in the experiment with SR leukemia; more than 100 µM with MDA-N; more than 100 µM in the experiment on T-47D breast; more than 100 µM in the experiment on LOX IMVI melanoma.

On to `C=CCn1cnc2c(=O)[nH]c(Nc3ccccc3)nc21`, for which the TGI in the experiment with U251 CNS, in the experiment with EKVX NSCLC, in the experiment with HCT-15 colon, with M14 melanoma, in the experiment on IGROV1 ovarian and in the experiment on RPMI-8226 leukemia was more than 100 µM throughout. The TGI in the experiment with CAKI-1 renal, in the experiment on OVCAR-4 ovarian, in the experiment on HCC-2998 colon, with MOLT-4 leukemia, with NCI-H522 lung and in the experiment with COLO 205 colon was more than 100 µM in each case. In addition, the TGI with HOP-62 NSCLC, in the experiment on SR leukemia, in the experiment on MDA-N, with T-47D breast and in the experiment with LOX IMVI melanoma was more than 100 µM each time.

With `COc1ccc2c(-c3ccc(O)cc3)c(Oc3ccc(Cl)cc3)c(=O)oc2c1`, the TGI is 20.1 µM in the experiment on U251 CNS; 12.5 µM with EKVX NSCLC; 17.6 µM in the experiment with HCT-15 colon; 17.9 µM in the experiment with M14 melanoma; 9.99 µM in the experiment on IGROV1 ovarian; 20.8 µM in the experiment with RPMI-8226 leukemia. Also, the TGI was 10.2 µM in the experiment with CAKI-1 renal; 25.4 µM with OVCAR-4 ovarian; 25.7 µM with HCC-2998 colon; more than 29.9 µM in the experiment on MOLT-4 leukemia; 6.53 µM in the experiment with NCI-H522 lung; more than 36.5 µM in the experiment on COLO 205 colon. Moreover, the TGI in the experiment with HOP-62 NSCLC is 44.2 µM; in the experiment with SR leukemia it was more than 28.5 µM; in the experiment with MDA-N, 23.2 µM; with T-47D breast, more than 100 µM; in the experiment on LOX IMVI melanoma it was more than 44.9 µM.

As for `COC(=O)[C@@H]1Cc2cc(O)c(O)cc2C2(CCN(C)CC2)O1`, the TGI in the experiment on U251 CNS, in the experiment on EKVX NSCLC, in the experiment on HCT-15 colon, with M14 melanoma, in the experiment on IGROV1 ovarian and in the experiment on RPMI-8226 leukemia was more than 10 µM each time. Besides, the TGI in the experiment on CAKI-1 renal, with OVCAR-4 ovarian, in the experiment on HCC-2998 colon, with MOLT-4 leukemia, in the experiment on NCI-H522 lung and with COLO 205 colon was more than 10 µM each time. Moreover, the TGI in the experiment with HOP-62 NSCLC, in the experiment on SR leukemia, in the experiment with MDA-N, in the experiment on T-47D breast and with LOX IMVI melanoma was more than 10 µM throughout.
